Patent US20100105748A1, “METHODS AND COMPOSITIONS FOR TREATMENT OF DRUG ADDICTION” (priority 2007, published 2010)
“Also recorded” adds a separate entry of the source. Counter-ions that a name gives are not always drawn.

Columns and labels:
rats = rats / rodents; cited from earlier work
mice = test: Cocaine-induced locomotion (ambulations in activity chambers); assay type: in vivo
Description: Locomotor activity measurement: Experiments were conducted in an isolated behavior room between 1000 and 1600 hrs. Ambulations (consecutive beam breaks) were measured in transparent plexiglass cages (40×20×20 cm^3) placed into a rack with seven infrared photobeams spaced 5 cm apart, each end beam 5 cm from the cage wall (San Diego Instruments Inc., LaJolla, Calif.). Mice were placed in the activity chambers for 4 hr, injected with cocaine (5, 10, or 20 mg/kg i.p.; Sigma-Aldrich, St Louis, Mo.), and ambulations were recorded for an additional 2 hr. Data were analyzed by ANOVA followed by Bonferroni post-hoc tests. For the antagonist studies, saline, the 5-HT1A antagonist WAY100635 (0.03 mg/kg), the 5-HT2 antagonist ketanserin (0.3 mg/kg), the D1 antagonist SCH23390 (0.03 mg/kg), or the D2 antagonist eticlopride were injected i.p. 30 min prior to cocaine (20 mg/kg). […] All drugs were purchased from Sigma-Aldrich (St Louis, Mo.).
Mice were implanted with minipumps for delivering either vehicle (50% DMSO, 0.9% NaCl or nepicastat (10 or 50 mg/kg/d). 3 weeks later, the mice were put in activity chambers, allowed to acclimate for 4 hrs, then injected with cocaine (10 mg/kg, i.p.) and ambulations measured for 2 additional hours, as shown in FIG. 8 (N=6 per group).
Two hours later, the mice were put in activity chambers, allowed to acclimate for 4 hrs, injected with cocaine (20 mg/kg, i.p.) and ambulations measured for 2 additional hours. (FIG. 9) (N=8 per group).

DBH [1] = biological target: T1, DBH (Mus musculus, UniProt Q64237); details: three injections of 200 mg/kg i.p. spaced two hours apart; cited from earlier work
T1 construct: host or cells: peripheral and central tissues of animals, in vivo
T1 sequence (Q64237 1-622): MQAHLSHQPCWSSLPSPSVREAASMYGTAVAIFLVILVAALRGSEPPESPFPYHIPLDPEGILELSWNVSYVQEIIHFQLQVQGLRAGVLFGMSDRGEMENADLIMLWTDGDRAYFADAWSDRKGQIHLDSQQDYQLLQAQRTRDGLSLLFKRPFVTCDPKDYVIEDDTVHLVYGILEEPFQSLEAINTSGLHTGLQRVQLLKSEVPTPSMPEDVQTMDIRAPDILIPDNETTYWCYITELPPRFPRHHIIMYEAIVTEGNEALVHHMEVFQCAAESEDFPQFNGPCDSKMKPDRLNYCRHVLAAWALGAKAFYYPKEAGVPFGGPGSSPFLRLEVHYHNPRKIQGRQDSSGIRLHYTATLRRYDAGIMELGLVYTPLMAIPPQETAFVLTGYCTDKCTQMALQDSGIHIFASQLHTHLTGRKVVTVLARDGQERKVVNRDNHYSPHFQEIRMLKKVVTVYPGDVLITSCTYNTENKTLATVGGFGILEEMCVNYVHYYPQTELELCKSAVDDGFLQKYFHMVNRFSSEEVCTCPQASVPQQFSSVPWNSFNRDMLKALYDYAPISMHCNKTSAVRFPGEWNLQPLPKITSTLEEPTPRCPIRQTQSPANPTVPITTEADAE

DBH [2] = details: animals; cited from earlier work
DBH [3] = biological target: T2, DBH (Homo sapiens, UniProt P09172); details: cited from earlier work
T2 sequence (P09172 1-617): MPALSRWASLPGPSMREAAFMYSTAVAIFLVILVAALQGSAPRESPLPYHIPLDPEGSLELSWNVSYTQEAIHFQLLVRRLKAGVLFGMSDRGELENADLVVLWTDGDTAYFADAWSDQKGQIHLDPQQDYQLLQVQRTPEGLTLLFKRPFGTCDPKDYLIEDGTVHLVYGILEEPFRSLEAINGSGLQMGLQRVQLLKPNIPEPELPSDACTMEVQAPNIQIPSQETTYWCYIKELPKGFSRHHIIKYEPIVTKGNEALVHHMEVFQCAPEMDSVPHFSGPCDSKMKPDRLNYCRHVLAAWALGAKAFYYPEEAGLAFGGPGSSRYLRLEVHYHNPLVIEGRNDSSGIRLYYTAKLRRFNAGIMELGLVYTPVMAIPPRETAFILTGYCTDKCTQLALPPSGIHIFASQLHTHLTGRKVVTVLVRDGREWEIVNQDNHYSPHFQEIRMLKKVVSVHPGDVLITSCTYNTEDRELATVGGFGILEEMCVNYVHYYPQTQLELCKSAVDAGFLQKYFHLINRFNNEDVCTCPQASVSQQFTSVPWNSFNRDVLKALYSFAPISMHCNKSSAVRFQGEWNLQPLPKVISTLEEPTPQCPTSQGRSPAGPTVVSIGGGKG

animal models = details: cited from earlier work
Dbh +/- and Dbh -/- mice = test: Elevated plus maze (EPM), cocaine-induced anxiety, Dbh mice; assay type: in vivo; details: for percent open arm time in EPM after cocaine: disulfuram 3x200 mg/kg i.p. two hours apart, cocaine 10 mg/kg i.p. 20 min before test; for percent open arm time in EPM after cocaine (cocaine-induced anxiety): antagonist i.p. 10 min prior to cocaine 10 mg/kg i.p., propranolol 5, prazosin 0.5, yohimbine 2.5 mg/kg; for percent open time in EPM, antagonist alone: same doses, no cocaine, tested 20 minutes later, vs saline-treated
Excerpt: Male and female Dbh +/− and −/− mice (aged 2 to 5 months) were individually housed on a reversed light cycle (lights on at 19:00, lights off at 7:00), and were allowed a minimum of two weeks to habituate to the new lighting conditions after moving from normal light cycle (lights on at 7:00, lights off at 19:00). Food and water were available ad libitum throughout the course of the study. Data from male and female mice were combined, since there were no detectable gender differences. Dbh mice were generated as described (15) and maintained on a mixed C57Bl6/J and 129SvEv background. Dbh +/− mice were used as controls, because they have normal brain catecholamine levels and are behaviorally identical to wild-type (Dbh +/+) mice (14-16). Three-month old male and female C57BL6/J mice (Jackson Labs, Bar Harbor, […].) were also used to generalize the findings from these experiments to a different strain of wild-type mouse. Housing, handling, and testing conditions for these animals were identical to those used in experiments with Dbh +/− mice.
Behavioral testing The EPM apparatus consisted of two open arms and two enclosed arms arranged in a plus orientation. The arms were elevated 30 inches above the floor, with each arm projecting 12 inches from the center. Because rodents naturally prefer dark, enclosed compartments, a greater willingness to explore the open, well-lit arms is believed to represent a decrease in the animal's anxiety. This interpretation has been validated by the efficacy of known anxiolytic and anxiogenic treatments in this paradigm (Paine et al., (2002) Behavioural Pharmacol. 13: […]; Gorman & Dunn (1993) Pharmacol. Biochem. & Behavior 45: 1-7; Pellow et al., (1985) J. Neurosci. Methods 14: 149-167; Johnston & File (1988) Pharmacol. Biochem. & Behavior 32: 151-156).
In all experiments, cocaine was injected 20 minutes prior to behavioral testing as described by Yang and colleagues (Yang et al., (1992) Pharmacol. Biochem. & Behavior 41: 643-650). To begin each test, mice were placed in the EPM facing one of the open arms and allowed to freely explore the apparatus for five minutes, during which time their behavior was videotaped. Videotapes were later scored by an observer who was blind to genotype and treatment group. The measure used for analysis was the percentage of time spent exploring the open arms, which was calculated by dividing the time spent in the open arms by the combined time spent in open and closed arms. Because some drug treatments and genetic manipulations alter overall locomotor activity, it was important to use this percentage measurement as the dependent variable for analysis (Pellow et al., (1985) J. Neurosci. Methods 14: 149-167).
Entry into an arm of the plus maze was defined as the animal placing all four paws in that particular compartment of the apparatus. All tests were run during the dark cycle, between 14:00 and 18:00. Mice were excluded from data analysis for any of the following reasons: if they jumped or fell off the maze after test had begun, if they had […] a seizure while on the testing apparatus, or if their open arm time was detected as an outlier using Grubb's test. Of 253 total mice tested, 10 were excluded from data analysis. Data were analyzed using independent samples t-tests, one-way ANOVA followed by Dunnett's post-hoc tests, or two-way ANOVA followed by Bonferroni post-hoc tests using Prism 4.0 for Macintosh. […]
This dosing regimen is known to decrease NE by ˜70% in the mouse brain (Bourdelat-Parks et al., (2005) Psychopharmacol. 183(1): 72-80). Mice received cocaine (10 mg/kg, i.p. at 10 ml/kg, dissolved in 0.9% saline) or saline two hours after the final pretreatment injection, and behavioral testing took place 20 minutes later, as described above. […]

DBH [4] = biological target: T2, DBH; set-up: host or cells: human subjects, in vivo; details: humans; cited from earlier work
C57BL6/J wild type mice = test: Elevated plus maze (EPM), cocaine-induced anxiety, wild type C57BL6/J mice; assay type: in vivo
Description: Behavioral testing The EPM apparatus consisted of two open arms and two enclosed arms arranged in a plus orientation. The arms were elevated 30 inches above the floor, with each arm projecting 12 inches from the center. Because rodents naturally prefer dark, enclosed compartments, a greater willingness to explore the open, well-lit arms is believed to represent a decrease in the animal's anxiety. […]
In all experiments, cocaine was injected 20 minutes prior to behavioral testing as described by Yang and colleagues (Yang et al., (1992) Pharmacol. Biochem. & Behavior 41: 643-650). […] Videotapes were later scored by an observer who was blind to genotype and treatment group. The measure used for analysis was the percentage of time spent exploring the open arms, which was calculated by dividing the time spent in the open arms by the combined time spent in open and closed arms. […]
Entry into an arm of the plus maze was defined as the animal placing all four paws in that particular compartment of the apparatus. […] Mice were excluded from data analysis for any of the following reasons: if they jumped or fell off the maze after test had begun, if they had […] a seizure while on the testing apparatus, or if their open arm time was detected as an outlier using Grubb's test. […]

For `S=C(Nc1ccccc1)Nc1nccs1` [U-14,624], which “reinstatement of amphetamine self-administration” value (rats) is on record?
Its value is “block”.

Which “reinstatement of amphetamine self-administration” value (rats) does the source give for `CCN(CC)C(=S)SSC(=S)N(CC)CC` [disulfuram, tetraethylthiuram] here?
Its value is “attenuates; also recorded: block”.

And the “locomotion induced by cocaine” value (mice; disulfuram via osmotic minipump 50 mg/kg/day for 2 to 3 weeks, cocaine 10 mg/kg, cocaine-naive animals)?
Its value is “decreased”.

And the “decrease of NE in the mouse brain” value (DBH [1])?
Its value is ~70%.

And the “dopamine (DA) in peripheral and central tissues” value (DBH [2])?
Its value is “increase dopamine (DA)”.

And the “norepinepherine (NE) in peripheral and central tissues” value (DBH [2])?
The value was “decrease norepinepherine (NE)”.

And the “IC50 for DBH” value (DBH [3])?
Its value is “low micromolar range”.

What about the cocaine sensitization (animal models) of the same molecule?
Its cocaine sensitization is “enhances cocaine sensitization”.

And the “locomotor response to acute administration of amphetamine” value (animal models)?
The value was “decreases”.

And the “locomotor response to acute administration of cocaine” value (animal models)?
The value was “decreases”.

And the “percent open arm time in EPM after cocaine” value (Dbh +/- and Dbh -/- mice)?
Its value is “attenuates cocaine-induced anxiety”.

What about the “percent open arm time in EPM after cocaine” value (Dbh +/- and Dbh -/- mice; listed as Disulfuram) of the same molecule?
Its value is “abolished the ability of cocaine to reduce open arm exploration time; also recorded: significantly increased level of open arm exploration”.

What about the “percent open arm time in EPM, saline instead of cocaine” value (Dbh +/- and Dbh -/- mice; disulfuram 3x200 mg/kg i.p., saline prior to testing) of the same molecule?
Its value is “no effect”.

And the “NE and its metabolites in urine, blood, and cerebrospinal fluid” value (DBH [4])?
Its value is “decreases”.

Which results are given for `NCc1c[nH]c(=S)n1[C@H]1CCc2c(F)cc(F)cc2C1` [nepicastat, S-5-amino methyl-1-(5,7-difluoro-1,2,3,4-tetrahydronapthalyl)-1,3-dihydroimidazole-2-thione hydrochloride]?
locomotion induced by cocaine (mice; prolonged (3 weeks) minipump treatment with 10 or 50 mg/kg/day, cocaine 10 mg/kg i.p., FIG. 8): significantly increased; cocaine-induced locomotion (mice; single acute dose 50 mg/kg i.p., cocaine 20 mg/kg i.p., FIG. 9, hydrochloride): did not significantly affect; also recorded: does not significantly affect

What does the source list for `COc1cc2nc(N3CCN(C(=O)c4ccco4)CC3)nc(N)c2cc1OC` [prazosin]?
percent open arm time in EPM after cocaine (cocaine-induced anxiety) (Dbh +/- and Dbh -/- mice): preserved; also recorded: did not; percent open time in EPM, antagonist alone (Dbh +/- and Dbh -/- mice): no significant effect

With `CC(C)NCC(O)COc1cccc2ccccc12` (stereo not drawn) [propranolol] as the molecule, how does the “percent open arm time in EPM after cocaine (cocaine-induced anxiety)” value (C57BL6/J wild type mice; propranolol 5 mg/kg i.p. 10 min prior to cocaine 20 mg/kg i.p.) read?
The value was “blocked; also recorded: attenuates cocaine-induced anxiety”.

What about the “baseline EPM performance” value (C57BL6/J wild type mice; propranolol 5 mg/kg i.p., saline instead of cocaine) of the same molecule?
Its value is “no effect”.

And the “percent open arm time in EPM after cocaine (cocaine-induced anxiety)” value (Dbh +/- and Dbh -/- mice)?
Its value is “abolished; also recorded: differed significantly from the control group; also recorded: attenuates cocaine-induced anxiety”.

What about the “percent open time in EPM, antagonist alone” value (Dbh +/- and Dbh -/- mice) of the same molecule?
Its value is “no significant effect”.

Which “percent open arm time in EPM after cocaine (cocaine-induced anxiety)” value (Dbh +/- and Dbh -/- mice) does the source give for `COC(=O)[C@@H]1[C@H]2C[C@H]3c4[nH]c5ccccc5c4CCN3C[C@@H]2CC[C@@H]1O` [yohimbine] here?
The value was “preserved; also recorded: did not”.

What about the “percent open time in EPM, antagonist alone” value (Dbh +/- and Dbh -/- mice) of the same molecule?
Its value is “no significant effect”.
